Laboratory results reported in US7368439B2, “Dinucleoside poly(borano)phosphate derivatives and uses thereof” (BAR - ILAN University, priority 2005, dated 2008).
Read-outs that look alike come from different tables or passages of the source.

What was measured:
[1] = pH 7.4/37° C., Tris/HCl buffer; for deboranation products: 4 weeks; for decomposition: 4 weeks (one month), sodium salts
Protocol: Dinucleosides poly(borano)phosphates tri- or penta-sodium salts were dissolved in Tris/HCl buffer (pH 7.4, 0.45 ml), and D2O (0.6 ml). pH 7.4 was then adjusted with HCl and measured with a pH-meter. Final analogue concentration was about 0.02 M. ^31P NMR spectra were recorded during 4 weeks at 3-7 days intervals at 37° C. Percentage of phosphoester hydrolysis of Ap3(β-B)A/Up3(β-B)U is based on absolute integrations of monophosphate signal (2.5 ppm). Percentage of phosphodiester hydrolysis of dinucleoside pentaphosphate is based on absolute integrations of Pα signal of ADP or UDP products.
Thus, ^31P NMR spectra of Up3(β-B)U, 2, and Ap5(β-B)A, 3, tri- and penta-sodium salts, respectively, in Tris/HCl buffer (in H2O), pH 7.4, were recorded during 4 weeks at 1- to 3-day intervals at 37° C.

[2] = for calculated hydrolysis rate constant: pH 1.4/37° C., KCl/HCl buffer, sodium salts, pseudo first-order fit
Protocol: To evaluate chemical stability at pH 1.4, sodium salts of dinucleoside poly(borano)phosphate analogues were dissolved in KCl/HCl buffer (pH 1.4, 0.44 ml) and D2O (0.06 ml). The final pH was then adjusted with HCl and measured with a pH-meter (final concentration 0.016 M). ^31P NMR spectra of Ap3(β-B)A and Up3(β-B)U were recorded during 3 h at 10 min time intervals at 37° C. Number of scans in all experiments was 1200, number of experiments was 17. The hydrolysis rate was determined by measurements of absolute integration of Pα (2.5 ppm) signal as a function of time and was fitted to a pseudo-first-order reaction model.
^31P NMR spectra of Ap5(β-B)A was recorded during 1 h at 10 min time intervals at 37° C. Number of scans in all experiments was 1200, number of experiments was 6. The hydrolysis rate was determined by measurement the absolute intagration of Pβ signal as a function of time and was fitted to a pseudo-first-order reaction model.
Chemical stability under conditions simulating gastric juice (pH 1.4/37° C.) was evaluated with Ap3(β-B)A, 1, Up3(β-B)U, 2, and Ap5(γ-B)A, 3 sodium salts, in KCl/HCl buffer. ^31P NMR spectra was recorded during 3 h at 10 min intervals. […] The intensity changes of the monophosphate ^31P signal with time were fit to a pseudo first-order exponential decay rate equation with respect to 1/2 concentration.

INS-1 cells = experiment: Glucose-dependent stimulation of insulin secretion in INS-1 cells; assay type: cell-based; settings: 6 mM glucose
Protocol: Compound 2, sodium salt, was tested for insulinotropic effect on insulin-secreting INS-1 cells (Hohmeier et al., 2000). Briefly, the cells were plated at a density of 2×10^5 in 12-well plates in RPMI with 10% fetal calf serum containing 11 mM glucose and maintained at 37° C. in a humidified atmosphere containing 5% CO2 for 2 days. The medium was removed on the third day post-plating and replaced with RPMI containing 3 mM glucose with 10% fetal calf serum. The cells were incubated for an additional 24 hours at 37° C. in a humidified atmosphere containing 5% CO2. On the fourth day post-plating, the medium was removed and replaced with Krebs-Ringer bicarbonate Hepes buffer (pH 7.4) containing 2 mM glucose. The cells were incubated for 30 min, and then the buffer was removed and replaced with Krebs-Ringer bicarbonate Hepes buffer (pH 7.4) with 6 mM glucose containing the test compound at various concentrations. The cells were incubated for 1 hour. Basal insulin secretion was determined by incubating the cells in the presence of buffer with 2 mM glucose. The presence of glucose at 6 and 10 mM stimulated insulin secretion and served as the reference control and positive control, respectively. A positive stimulatory response by the test compound was taken as the response above that elicited by 6 mM glucose.

human islets = experiment: Insulin secretion using human islets; assay type: cell-based; settings: 12 mM glucose; 10^−13 and 10^−12 M; 30 minutes at 37° C.; FIG. 3
Protocol: Islets aliquots were supplemented with 1 ml of medium containing 2.2, 12 or 22 mM glucose, or 22 mM glucose with 3-isobutyl-1-methylxanthine (IBMX) as a positive control, in the presence of various concentration of Up3(β-B)U tri-sodium salt, and incubated for 30 minutes at 37° C. in a humidified atmosphere containing 5% CO2. The medium was then collected for determination of insulin level; islets were collected for determination of protein; and insulin secretion was normalized to total protein. Basal insulin secretion was determined by incubating the islets in the presence of buffer containing 2 mM glucose.
Islets were kept in CMRL 1066 medium containing 5.5 mM glucose for 2-3 days and then washed out with medium containing 2.2 mM glucose. Islet aliquots were supplemented with 1 ml of medium containing 2.2, 12 or 22 mM glucose or 22 mM glucose with 3-isobutyl-1-methylxanthine (IBMX), in the presence or absence of the different secretagogues. The experiments were done in triplicate. Islets were incubated for 30 minutes at 37° C. in a humidified atmosphere containing 5% CO2. After incubation, the medium was collected for determination of insulin level. Quantification of insulin was done in duplicate using human insulin ELISA kit (ALPCO). […] Basal insulin secretion was determined by incubating the islets in the presence of buffer with 2 mM glucose. […]

[3] = tested on: Diet-Induced Obesity (DIO) mouse model; experiment: Glycemic response of DIO mice in the Oral Glucose Tolerance Test after a single intravenous administration; assay type: in vivo
Protocol: C57BL/6 male mice (Charles River Canada, St-Constant, Qc, Canada) were received at 7-8 weeks of age and fed a high fat diet (60% of calories from fat) for 6-8 weeks to induce hyperglycemia and obesity (Surwit et al., 1988). Blood glucose was checked and animals with readings between 200 and 220 mg/dl were included in the study. The animals were randomized based on their body weight and glycemic values, into control and treatment groups (n=6-8). The animals received a single intravenous injection of the test compound one minute prior to the Oral Glucose Tolerance Test (OGTT). The control group received vehicle (saline) alone. Blood samples (one drop) were collected from the tail vein prior to the administration of the test compound and at 5, 10, 20, 30, 60, 90 and 120 minutes post-glucose administration. Whole blood glucose values were determined using a hand-held glucometer (Model OneTouch Ultra, LifeScan). All data are expressed as mean±SEM.
FIG. 2 is an area under the curve (AUC) graph of delta glycemia. It is a representation of the area under the curve of the responses seen during the oral glucose tolerance test challenge. The data are corrected for the baseline blood glucose levels of the individual mice. […] If the area under the curves is integrated, the response can be quantified as represented in the bar graph.

## BP(=O)(OP(=O)(O)OP(=O)(O)OCC1OC(n2cnc3c(N)ncnc32)C(O)C1O)OP(=O)(O)OP(=O)(O)OCC1OC(n2cnc3c(N)ncnc32)C(O)C1O (stereo not shown) [compound 3, diadenosine penta(borano)phosphate]
[1]
  deboranation products: No deboranation products could be detected
  decomposition: less than 15%
[1]; listed as Ap5(γ-B)A
  decomposition: less than 10%
[2]; gastric juice conditions
  fold less hydrolytically stable compared to Ap3(β-B)A: about 4 fold

## diadenosine tri(borano)phosphate [compound 1]
[2]
  calculated hydrolysis rate constant: 0.000152 s⁻¹
[2]; under gastric juice conditions
  fold less stable than ATP-α-B analogues: 2 fold

## diuridine tri(borano)phosphate [compound 2]
[1]
  deboranation products: No deboranation products could be detected
INS-1 cells; 1 hour incubation, FIG. 1
  insulin secretion versus background: stimulated insulin secretion above background levels
INS-1 cells; 10^−12 and 10^−11 M, activity dropping as the concentration increased
  activity on insulin secretion at low concentrations: active at low concentrations
Human islets
  insulin secretion by human islets: able to promote significant insulin secretion
[2]
  calculated hydrolysis rate constant: 0.000165 s⁻¹
[3]; 100 ng/kg intravenous, activity dropping as the concentration decreased
  activity on glycemia at low concentration: active at low concentration
[3]; DIO-mice, intravenous, one minute prior to the glucose challenge, FIG. 2
  effect on the increase of glycemia (delta glycemia, AUC): partially inhibited the increase of the glycemia
